Source: PubChem BioAssay AID1259407 (Chemical Carcinogenesis Research Information System (CCRIS), 2018)
The source made the active and inactive calls. The rule behind the calls is not given here.

Test system: CCRIS mutagenicity, Ames/micronucleus/aberration tests
Test: CCRIS mutagenicity studies
[1] = Test System: AMES SALMONELLA TYPHIMURIUM, Strain/Indicator: TA98, Metabolic Activation: NONE, Method: STANDARD PLATE
[2] = Test System: AMES SALMONELLA TYPHIMURIUM, Strain/Indicator: TA100, Metabolic Activation: NONE, Method: STANDARD PLATE
[3] = Test System: AMES SALMONELLA TYPHIMURIUM, Strain/Indicator: TA1535, Metabolic Activation: NONE, Method: STANDARD PLATE

SMILES: CCCCCCOCCOCCO
- mutagenic call [1]: inactive; negative
- mutagenic call (Test System: AMES SALMONELLA TYPHIMURIUM, Strain/Indicator: TA98, Metabolic Activation: RAT LIVER S-9, AROCLOR 1254, Method: STANDARD PLATE): inactive; negative
- mutagenic call [2]: inactive; negative
- mutagenic call (Test System: AMES SALMONELLA TYPHIMURIUM, Strain/Indicator: TA100, Metabolic Activation: RAT LIVER S-9, AROCLOR 1254, Method: STANDARD PLATE): inactive; negative
- mutagenic call [3]: inactive; negative
- mutagenic call (Test System: AMES SALMONELLA TYPHIMURIUM, Strain/Indicator: TA1535, Metabolic Activation: RAT LIVER S-9, AROCLOR 1254, Method: STANDARD PLATE): inactive; negative
- mutagenic call (Test System: AMES SALMONELLA TYPHIMURIUM, Strain/Indicator: TA1537, Metabolic Activation: NONE, Method: STANDARD PLATE): inactive; negative
- mutagenic call (Test System: AMES SALMONELLA TYPHIMURIUM, Strain/Indicator: TA1537, Metabolic Activation: RAT LIVER S-9, AROCLOR 1254, Method: STANDARD PLATE): inactive; negative
- mutagenic call (Test System: AMES SALMONELLA TYPHIMURIUM, Strain/Indicator: TA1538, Metabolic Activation: NONE, Method: STANDARD PLATE): inactive; negative
- mutagenic call (Test System: AMES SALMONELLA TYPHIMURIUM, Strain/Indicator: TA1538, Metabolic Activation: RAT LIVER S-9, AROCLOR 1254, Method: STANDARD PLATE): inactive; negative
- mutagenic call (Test System: CHINESE HAMSTER OVARY CELLS, Strain/Indicator: CHO-K1-BH4 CELLS (HPRT)/6-THIOGUANINE, Metabolic Activation: RAT LIVER S-9, AROCLOR 1254, Method: PREINCUBATION): active; positive

SMILES: CC(C)(CO)[C@@H](O)C(=O)NCCC(=O)O
- mutagenic call (Test System: AMES SALMONELLA TYPHIMURIUM, Strain/Indicator: TA97, Metabolic Activation: NONE, Method: PREINCUBATION): inactive; negative
- mutagenic call (Test System: AMES SALMONELLA TYPHIMURIUM, Strain/Indicator: TA97, Metabolic Activation: RAT, LIVER, S-9, AROCLOR 1254, Method: PREINCUBATION): inactive; negative
- mutagenic call (Test System: AMES SALMONELLA TYPHIMURIUM, Strain/Indicator: TA97A, Metabolic Activation: NONE, Method: PREINCUBATION): inactive; negative
- mutagenic call (Test System: AMES SALMONELLA TYPHIMURIUM, Strain/Indicator: TA97A, Metabolic Activation: RAT, LIVER, S-9, AROCLOR 1254, Method: PREINCUBATION): inactive; negative
- mutagenic call (Test System: AMES SALMONELLA TYPHIMURIUM, Strain/Indicator: TA102, Metabolic Activation: NONE, Method: PREINCUBATION): inactive; negative
- mutagenic call (Test System: AMES SALMONELLA TYPHIMURIUM, Strain/Indicator: TA102, Metabolic Activation: RAT, LIVER, S-9, AROCLOR 1254, Method: PREINCUBATION): inactive; negative

SMILES: O=S1(=O)CCCO1
- mutagenic call (Test System: AMES SALMONELLA TYPHIMURIUM, Strain/Indicator: TA100, Metabolic Activation: RAT, LIVER, S-9, KC500 OR PHENOBARBITAL, Method: LIQUID SUSPENSION): active; positive
- mutagenic call [3]: active; positive
- mutagenic call (Test System: UDS HUMAN FIBROBLASTS, Strain/Indicator: THY INCORP (NON-S-PHASE), Metabolic Activation: NONE, Method: LIQUID SCINTILLATION COUNTING): active; positive

SMILES: C1=CC2=C3OC3=C3c4ccc5ccccc5c4CC(=C1)C23 (stereo not given)
- mutagenic call [1]: active; positive
- mutagenic call (Test System: AMES SALMONELLA TYPHIMURIUM, Strain/Indicator: TA98, Metabolic Activation: RAT, LIVER, S-9, AROCLOR 1254, Method: STANDARD PLATE): active; positive

SMILES: NC(=O)OC[C@H](O)[C@@H](O)[C@H](N)C(=O)N[C@H](C(=O)[O-])[C@H]1O[C@@H](n2cc(C(=O)[O-])c(=O)[nH]c2=O)[C@H](O)[C@@H]1O.[Zn+2]
- mutagenic call [2]: active; positive
- mutagenic call (Test System: AMES SALMONELLA TYPHIMURIUM, Strain/Indicator: TA100, Metabolic Activation: S-9 MIX, Method: STANDARD PLATE): active; positive

SMILES: CC(=O)O[C@H]1CC[C@]2(C)[C@H]3CC[C@]4(C)[C@@H]([C@H](C)CCCC(C)C)CC[C@H]4[C@@H]3C[C@@H]3N(N4C(=O)c5ccccc5C4=O)[C@@]32C1 (stereo not given in full)
- mutagenic call (Test System: AMES SALMONELLA TYPHIMURIUM, Strain/Indicator: TA97A, Metabolic Activation: NONE, Method: STANDARD PLATE): active; positive
- mutagenic call (Test System: AMES SALMONELLA TYPHIMURIUM, Strain/Indicator: TA97A, Metabolic Activation: RAT, LIVER, S-9, AROCLOR 1254, Method: STANDARD PLATE): active; positive
- mutagenic call [1]: active; positive
- mutagenic call [2]: active; positive
- mutagenic call (Test System: AMES SALMONELLA TYPHIMURIUM, Strain/Indicator: TA100, Metabolic Activation: RAT, LIVER, S-9, AROCLOR 1254, Method: STANDARD PLATE): active; positive
- mutagenic call (Test System: AMES SALMONELLA TYPHIMURIUM, Strain/Indicator: TA102, Metabolic Activation: NONE, Method: STANDARD PLATE): inactive; negative
- mutagenic call (Test System: AMES SALMONELLA TYPHIMURIUM, Strain/Indicator: TA102, Metabolic Activation: RAT, LIVER, S-9, AROCLOR 1254, Method: STANDARD PLATE): active; positive
- mutagenic call (Test System: AMES SALMONELLA TYPHIMURIUM, Strain/Indicator: TA104, Metabolic Activation: NONE, Method: STANDARD PLATE): active; positive
- mutagenic call (Test System: AMES SALMONELLA TYPHIMURIUM, Strain/Indicator: TA104, Metabolic Activation: RAT, LIVER, S-9, AROCLOR 1254, Method: STANDARD PLATE): active; positive

SMILES: CN(Cc1cccc(C#N)c1)N=O
- mutagenic call (Test System: AMES SALMONELLA TYPHIMURIUM, Strain/Indicator: TA1535, Metabolic Activation: HAMSTER, LIVER, S-9, AROCLOR 1254, Method: STANDARD PLATE): active; positive
- mutagenic call [3]: active; positive
